From ChEMBL document CHEMBL1649397, “Synthesis of a-factor peptide from Saccharomyces cerevisiae and photoactive analogues via Fmoc solid phase methodology” (Bioorg Med Chem, 2011)
Active and inactive are the calls of the source. The calls are words filed in the database; no cut-off is given here. Where a SMILES comes first, the peptide text is derived from it. The star is where a group is joined. X3 = C/C(=C/C*)CC/C=C(\C)COCc1cccc(C(=O)c2ccccc2)c1; X2 = C/C(=C/C*)COCc1cccc(C(=O)c2ccccc2)c1; X1 = CC(C)=CCC/C(C)=C/CC/C(C)=C\C*

How the values were obtained:
Type in all cases: functional, organism-based
Saccharomyces cerevisiae [1] = assay: Growth arrest against Saccharomyces cerevisiae RC757 assessed as zone of inhibition at 0.50 ng after overnight incubation
Saccharomyces cerevisiae [2] = assay: Growth arrest against Saccharomyces cerevisiae RC757 assessed as zone of inhibition after overnight incubation
Saccharomyces cerevisiae [3] = assay: Growth arrest against Saccharomyces cerevisiae LM102 assessed as zone of inhibition after overnight incubation
Saccharomyces cerevisiae [4] = assay: Growth arrest against Saccharomyces cerevisiae RC757 assessed as zone of inhibition at 0.25 ng after overnight incubation

CC[C@H](C)[C@H](NC(=O)[C@@H](NC(=O)[C@@H](N)Cc1ccc(O)cc1)[C@@H](C)CC)C(=O)N[C@@H](CCCCN)C(=O)NCC(=O)N[C@H](C(=O)N[C@@H](Cc1ccccc1)C(=O)N[C@@H](Cc1c[nH]c2ccccc12)C(=O)N[C@@H](CC(=O)O)C(=O)N1CCC[C@H]1C(=O)N[C@@H](C)C(=O)N[C@@H](CSC/C=C(/C)CC/C=C(\C)COCc1cccc(C(=O)c2ccccc2)c1)C(=O)OC)C(C)C (H-YIIKGVFWDPAC(X3)-OMe)
inhibition zone (IZ) (Saccharomyces cerevisiae [1]): Active

CC[C@H](C)[C@H](NC(=O)[C@@H](NC(=O)[C@@H](N)Cc1ccc(O)cc1)[C@@H](C)CC)C(=O)N[C@@H](CCCCN)C(=O)NCC(=O)N[C@H](C(=O)N[C@@H](Cc1ccccc1)C(=O)N[C@@H](Cc1c[nH]c2ccccc12)C(=O)N[C@@H](CC(=O)O)C(=O)N1CCC[C@H]1C(=O)N[C@@H](C)C(=O)N[C@@H](CSC/C=C(/C)CC/C=C(\C)CCC=C(C)C)C(=O)OC)C(C)C (H-YIIKGVFWDPAC(X1)-OMe)
inhibition zone (IZ) (Saccharomyces cerevisiae [2]): Active
inhibition zone (IZ) (Saccharomyces cerevisiae [3]): inactive

CC[C@H](C)[C@H](NC(=O)[C@@H](NC(=O)[C@@H](N)Cc1ccc(O)cc1)[C@@H](C)CC)C(=O)N[C@@H](CCCCN)C(=O)NCC(=O)N[C@H](C(=O)N[C@@H](Cc1ccccc1)C(=O)N[C@@H](Cc1c[nH]c2ccccc12)C(=O)N[C@@H](CC(=O)O)C(=O)N1CCC[C@H]1C(=O)N[C@@H](C)C(=O)N[C@@H](CSC/C=C(/C)COCc1cccc(C(=O)c2ccccc2)c1)C(=O)OC)C(C)C (H-YIIKGVFWDPAC(X2)-OMe)
inhibition zone (IZ) (Saccharomyces cerevisiae [4]): Active
